In brackets after ≈: the same amount, converted by molar mass.
Tested on: antiserum KLH-R3 (I) (polyclonal anti-Rebaudioside D antibody)
Experiment: Competitive indirect ELISA for Rebaudioside D (conjugate-coated format, antiserum KLH-R3 (I) / BSA-R3 coating conjugate)
Format: binding, rabbit
Conditions: for cross-reactivity CR = (IC50 Rebaudioside D/IC50 compound)×100: developed immunoassay for Reb D
Description: The hapten R1 (rebaudioside D) (5 mg suspended in 0.5 mL of 10 mM PBS) and KLH-conjugates or BSA-R (n=2-5), (0.5 mL of conjugate at a concentration of […], 10 mM PBS) were injected intramuscularly into two New Zealand California white rabbits, with 0.5 mL of complete Freund's adjuvant in the first immunization, and 0.5 mL of incomplete Freund's adjuvant in the following. Immunizations were performed every 21 days, and 10 days after each immunization bleedings were carried out to know the title and properties of serum from each animal. After five cycles of immunization, blood was obtained by bleeding, leaving it to coagulate overnight at 4° C. Subsequently, after adding sodium azide (0.02%) serum was separated by centrifugation and stored at −80° C.
First, the avidity of the sera obtained against different coating conjugates was determined by non-competitive indirect ELISA using different antisera (serial dilutions from 1/1000 to 1/64000) and concentrations of the coating conjugates (0.001 to 1.0 mg/L). Similarly, the avidity to the enzyme-tracer was determined by a direct non-competitive ELISA using several dilutions of the tracer (serial dilutions from 0.001 to 1.0 mg/L) and serum (from 1/500 to 1/512000).
The titres obtained from conjugate-coated format indirect format (ELISA plates coated with protein-hapten) were higher than those obtained for direct format (ELISA plates coated with serum), choosing as optimal concentrations of coating conjugates and dilution of serum, those that produced absorbance values around 0.8-1.2 units in absence of analyte (Rebaudioside D), to carry out competitive tests.
Flat-bottomed polystyrene ELISA plates were coated overnight at 4° C. with 100 μL/well of the appropriate coating conjugate solution in CB. The following day, plates were washed six times with 15 mmol/L PBS-T pH 8.5, and then 50 μL of the serum dilution and 50 μL of Reb D in PBS-T were added and incubated at room temperature during 1 h. After washing, an incubation step (1 h) with 100 μL/well GAR-HRP (diluted 1/2000 in PBS-T) was accomplished, and plates washed again. Finally, 100 μL/well of substrate solution (2 mg/mL OPD and 0.012% H2O2 in 25 mmol/L sodium citrate and 62 mmol/L sodium phosphate, pH 5.5) was added. The enzymatic reaction was stopped after 10 min by addition of 2.5 mol/L H2SO4 (50 μL/well), and the absorbance was read in a dual-wavelength mode (490, 650 nm).
The optimization was performed for the most sensitive assay (antiserum KLH-R3/BSA-R3 coating conjugate) using Reb D as competitor analyte.
The influence of several experimental parameters such as ionic strength, pH, surfactant concentration and time of competition on assay characteristics was examined in order to improve the immunoassay performance (sensitivity, maximum absorbance, working or dynamic range and detection limit). Criteria used to evaluate the assay performances were sensitivity (IC50), maximum absorbance (A0), dynamic range (DR, established between the Reb D concentrations producing 20% and 80% colour inhibition) and limit of detection (LD, estimated at 10% inhibitory concentration).
Assay selectivity was evaluated by determining the cross-reactivity with two sugars derived from Stevia rebaudiana, such as rebaudioside A and stevioside. The cross reactivity values were calculated according to the following equation: CR=(IC50 [mg/L] Rebaudioside D/IC50 [mg/L] compound)×100.

[1] = cross-reactivity study, related compound as competitor

SMILES: C=C1C[C@@]23CC[C@H]4[C@@](C)(CCC[C@@]4(C)C(=O)O[C@@H]4O[C@H](CO)[C@@H](O)[C@H](O)[C@H]4O)[C@@H]2CC[C@]1(O[C@@H]1O[C@H](CO)[C@@H](O)[C@H](O[C@@H]2O[C@H](CO)[C@@H](O)[C@H](O)[C@H]2O)[C@H]1O[C@@H]1O[C@H](CO)[C@@H](O)[C@H](O)[C@H]1O)C3 [Rebaudioside A]
- IC50 [1]: 225 µg/L (≈ 233 nM)
- cross-reactivity CR = (IC50 Rebaudioside D/IC50 compound)×100: 0.16%

SMILES: C=C1C[C@@]23CC[C@H]4[C@@](C)(CCC[C@@]4(C)C(=O)O[C@@H]4O[C@H](CO)[C@@H](O)[C@H](O)[C@H]4O)[C@@H]2CC[C@]1(O[C@@H]1O[C@H](CO)[C@@H](O)[C@H](O)[C@H]1O[C@@H]1O[C@H](CO)[C@@H](O)[C@H](O)[C@H]1O)C3 [Stevioside]
- IC50 [1]: 418,605 μg/L
- cross-reactivity CR = (IC50 Rebaudioside D/IC50 compound)×100: 8.6×10^−5%

SMILES: C=C1C[C@@]23CC[C@H]4[C@@](C)(CCC[C@@]4(C)C(=O)O[C@@H]4O[C@H](CO)[C@@H](O)[C@H](O)[C@H]4O[C@@H]4O[C@H](CO)[C@@H](O)[C@H](O)[C@H]4O)[C@@H]2CC[C@]1(O[C@@H]1O[C@H](CO)[C@@H](O)[C@H](O[C@@H]2O[C@H](CO)[C@@H](O)[C@H](O)[C@H]2O)[C@H]1O[C@@H]1O[C@H](CO)[C@@H](O)[C@H](O)[C@H]1O)C3 [Rebaudioside D]
- IC50 (PBS 5 mmol/L, 0.05% Tween 20, pH 7.5): 1.53 ± 0.41 µg/L (≈ 1.35 nM)
- IC50 (PBS 10 mmol/L, 0.05% Tween 20, pH 7.5): 1.30 ± 0.35 µg/L (≈ 1.15 nM)
- IC50 (PBS 15 mmol/L, 0.05% Tween 20, pH 7.5): 0.77 ± 0.24 µg/L (≈ 0.682 nM)
- IC50 (PBS 20 mmol/L, 0.05% Tween 20, pH 7.5): 1.02 ± 0.28 µg/L (≈ 0.903 nM)
- IC50 (PBS 30 mmol/L, 0.05% Tween 20, pH 7.5): 1.70 ± 0.45 µg/L (≈ 1.51 nM)
- IC50 (Tween 20 0.000%, 15 mM PBS, pH 8.5): 0.68 ± 0.26 µg/L (≈ 0.602 nM)
- IC50 (Tween 20 0.010%, 15 mM PBS, pH 8.5): 0.56 ± 0.23 µg/L (≈ 0.496 nM)
- IC50 (Tween 20 0.025%, 15 mM PBS, pH 8.5): 0.58 ± 0.19 µg/L (≈ 0.514 nM)
- IC50 (Tween 20 0.050%, 15 mM PBS, pH 8.5): 0.49 ± 0.15 µg/L (≈ 0.434 nM)
- IC50 (Tween 20 0.100%, 15 mM PBS, pH 8.5): 0.39 ± 0.08 µg/L (≈ 0.345 nM)
- IC50 (optimal conditions (15 mM PBS, pH 8.5, 0.25% Tween 20), set of 20 calibration curves): 0.36 ± 0.05 µg/L (≈ 0.319 nM)
- detection limit (LD, estimated at 10% inhibitory concentration) (optimal conditions, 20 calibration curves): 0.01 µg/L
- IC50 (pH 4.5, 15 mM PBS, 0.05% Tween 20): 0.63 ± 0.21 µg/L (≈ 0.558 nM)
- IC50 (pH 5.5, 15 mM PBS, 0.05% Tween 20): 0.86 ± 0.23 µg/L (≈ 0.762 nM)
- IC50 (pH 6.5, 15 mM PBS, 0.05% Tween 20): 0.91 ± 0.27 µg/L (≈ 0.806 nM)
- IC50 (pH 7.5, 15 mM PBS, 0.05% Tween 20): 0.77 ± 0.24 µg/L (≈ 0.682 nM)
- IC50 (pH 8.5, 15 mM PBS, 0.05% Tween 20): 0.49 ± 0.15 µg/L (≈ 0.434 nM)
- IC50 (pH 9.5, 15 mM PBS, 0.05% Tween 20): 0.50 ± 0.19 µg/L (≈ 0.443 nM)
- IC50 (serum screening, before optimization, pair KLH-R3 (I)/BSA-R3 (1:2000/0.03 mg/L)): 1.30 µg/L (≈ 1.15 nM)
